# Laboratory results from US4999374A, “Veterinary treatment” (priority 1987, dated 1991).
# Where “and” joins values, the source holds several entries; their conditions need not be identical. Identical values can stand only once.
# Columns and labels:
# T. hyodysenteriae [1] = experiment: Comparative efficacy of M139603 and lasalocid in experimentally infected mice (Example 4, Table 4); type: in vivo, mice (strain MF-1); conditions: 20 ppm feed
# Excerpt: (§1) The infection leads to varying degrees of caecitis, the lesions of which are apparent in animals killed on or about the sixth day post-infection. Caecal specimens examined by bacteriological culture techniques applicable for enumeration of organisms reveal the presence of high populations of T.hyodysenteriae. This disease-model was used in experiments to compare the efficacy of M139603 with that of salinomycin, lasalocid and monensin in suppressing the infection.
# (§2) In this study, the efficacy of M139603 was tested at 25 ppm feed and that of monensin (Eli Lilly) at 50 or 100 ppm. Groups of infected mice, five per group, were offered the drugs in the feed on five continuous days before killing. Caecal materials were subjected to bacteriological examination to enumerate the populations of viable treponemes per gram of material. […] The group mean in respect of the unmedicated groups was 7.9 cfu/g.
# In this study, the efficacy of M139603 was tested at 20 ppm feed and that of lasalocid (Hoffman la Roche) at 20, 40 and 80 ppm. The test procedures were similar to those above except for the size of the inoculum of T.hyodysenteriae (1.2×10^7 cfu) used in infecting each mouse. […] The mean (log10) counts of viable treponemes found in the caecal contents of the various groups were: 2.5 cfu/g caecum (139603 at 20 ppm), 7.35 cfu (lasalocid at 20 ppm), 7.45 cfu (lasalocid at 40 ppm), 3.81 cfu (lasalocid at 80 ppm) and 8.50 cfu (unmedicated control).
# T. hyodysenteriae [2] = experiment: Comparative efficacy of M139603 and salinomycin in experimentally infected mice (Example 3, Table 3); type: in vivo, mice (strain MF-1); conditions: 30 ppm feed
# Excerpt: as §1, §2
# In this study, the efficacy of M139603 was tested at 30 ppm and that of salinomycin at 30, 40 or 60 ppm feed. The mouse-groups and test-procedureswere simi-ar to those applied under Example 2 above.
# [3] = tested on: T. hyodysenteriae strain "P18a"; experiment: Agar-dilution M.I.C. test of M139603 and analogues (Example 8, Table 8); type: cell-based, Treponema hyodysenteriae; conditions: Brachyspira hyodysenteriae, Isosensitest agar with 5% sheep-blood, anaerobic, 39° C., 48-72 hours
# Experimental: T. hyodysenteriae strain "P18a" was used in both in vitro and in vivo tests as above.
# Minimum inhibitory concentration test: An agar-dilution M.I.C. test procedure was applied in the study. The susceptibility of the bacterial strain was tested against a range of dilutions (0.3 mg; 0.1 mg; 0.03 mg; 0.01 mg and 0.003 mg/l medium) of each compound incorporated in plates of Isosensitest agar (Oxoid CM471) with 5% added sheep-blood. The plates, `spot-inoculated` (Steer's type multipoint inoculator) with a standard culture-suspension of the test strain, were incubated anaerobically at 39° C. for 48-72 hours before reading the results. The M.I.C. of each compound was read as the lowest concentration yielding no growth (no haemolysis) or a hazy growth (faint haemolysis) on the site of the spot-inoculation.
compound,measurement,setting,value
"CO[C@@H](C)[C@H]1C[C@H](C)[C@H]([C@@H](C)/C=C/[C@@H]2CC[C@@H](C)[C@H](/C(=C/[C@H]3CCC[C@@H](C)[C@@H]3[C@H](C)C(=O)C3=C(O)COC3=O)CO)O2)O1 [Analogue M139603, tetronasin]",Complete suppression of infection,T. hyodysenteriae [1],completely suppressed the infection in two mice
same,Efficacy compared with lasalocid at 80 ppm,T. hyodysenteriae [1],greater than that of lasalocid at 80 ppm
same,Mean (log10) viable treponemes per gram caecal contents,"T. hyodysenteriae [1]; 5 days, group mean (table)",1.62 log10 per gram
same,Viable treponemes per gram caecal contents,"T. hyodysenteriae [1]; 5 days, individual mice",0 per gram and 4.3 × 10^3 per gram and 3.0 × 10^2 per gram and 1.0 × 10^2 per gram
same,Mean (log10) count of viable treponemes in caecal contents,T. hyodysenteriae [1]; log10,2.5 cfu/g caecum
same,Reduction of T. hyodysenteriae populations,T. hyodysenteriae [1]; other three mice,markedly reduced
same,Suppression of infection,T. hyodysenteriae [2],suppressed the infection
same,Mean (log10) viable treponemes per gram caecum & contents,"T. hyodysenteriae [2]; 5 days, group mean",0 log10 per gram
same,Viable treponemes per gram caecum & contents,"T. hyodysenteriae [2]; 5 days, individual mice",negative
same,MIC,[3],0.01 µg/mL
